Laboratory results from patent US5883136A, “Anhydroretinol and derivatives thereof as antagonists of immune responses and inhibitors of cancer cell growth” (Sloan-Kettering Institute for Cancer Research, priority 1995, dated 1999).
Like-named read-outs stand apart in the source and are kept apart here.

How the values were obtained:
DU145 = experiment: Tumor cell sensitivity to anhydroretinol, prostate carcinoma; type: cell-based; conditions: DU145, FIG. 6A
Source text: (§1) FIGS. 6A-6B show titrations for the inhibition by AR of prostate carcinoma cell lines DU145, PC-3 and LNCAP.

LNcAP = experiment: as above; type: cell-based; conditions: FIG. 6C
Source text: as §1

Murine thymocytes [1] = experiment: Activation of murine thymocytes with anti-CD3, 3H thymidine incorporation; type: cell-based
Method: (§2) Murine thymocytes (2×10^5 /well in triplicates) were cultured in ITLB medium in 96-well plates coated with 10 μg/ml anti-CD3^ε mAB (12) as described (3). […] Cell proliferation was tested on day 3 by ^3 H thymidine incorporation into DNA. […] The results of cell proliferation assays performed at 72 hours are shown. […] CTLL proliferation was measured by ^3 H thymidine incorporation into DNA (FIG. 4D). The standard deviation of triplicate measurements were <10%.

lymphocytes [2] = experiment: Metabolism by lymphocytes to retinol or 14-HRR; type: in vitro ADME; conditions: unpublished data
SF-9 cells = experiment: Metabolites of [3H] retinol in SF-9 cells, HPLC; type: in vitro ADME, insect; conditions: SF-9, 4 hours, FIG. 1A
Method: (§3) After 4 hours (FIGS. 1A and 1B) or after 16 hours (FIG. 1C) retinoids were extracted from the washed cell pellet according to the procedure of McClean et al. (16). Retinoids were separated on an analytical C18 reversed-phase column and detected with an on-line scintillation counter using the methodology described in Buck et al. (4). […] The peak eluting at minute 29 is the all-trans anhydroretinol, whereas the companion peaks at minute 27 and 28 represent cis-isomers (14). All isomers yield spectra with characteristic vibronic fine structure similar to the spectrum of all-trans AR.

14-HRR synthesis = experiment: Metabolic rate of 14-HRR synthesis from 3H labelled retinol; type: cell-based; conditions: hundredfold excess of AR, data not shown
Source text: Therefore, competitive inhibition at the level of CRBP is a realistic possibility to explain the retinol-AR antagonism. […] By inference, a separate 14-HRR binding protein/receptor, as yet to be defined, may exist.

B lymphocyte = B lymphocyte proliferation (summary statement); type: cell-based
[3] = biological target: T1, cellular retinol binding protein (CRBP I) (Homo sapiens, UniProt P09455); experiment: Dissociation constant to cellular retinol binding protein by fluorometric titration; conditions: for Kd: fluorometric titration, 150 mM NaCl, 0.1 mM DTT, 25 mM HEPES
T1 sequence (P09455 1-135): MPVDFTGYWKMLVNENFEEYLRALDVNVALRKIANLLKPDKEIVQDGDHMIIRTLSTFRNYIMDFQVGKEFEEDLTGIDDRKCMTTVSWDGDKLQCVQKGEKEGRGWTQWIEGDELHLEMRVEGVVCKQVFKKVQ
Method: (§4) Apo-protein (1-3 μM) was titrated with the appropriate all-trans-retinoid dissolved in ethanol and the titration was followed by measuring the increase in the fluorescence of the retinoids upon binding. Reaction mixtures included 150 mM NaCl, 0.1 mM DTT, and 25 mM HEPES; pH's were 7.0 and 7.4, respectively. […] Data analyses were performed as described by Cogan et al. (14). Human RBP was purified from human serum by means of a transthyretin column (15). Human CRBP I and CRABP I were gifts from Dr. W. S. Blaner (Columbia University, New York, N.Y.) and Dr. J. Napoli (SUNY, Buffalo, N.Y.), respectively.

SF 21 cells = experiment: Metabolites of [3H] retinol in SF 21 cells, HPLC; type: in vitro ADME, insect; conditions: SF 21, 4 hours, FIG. 1B
Method: as §3

CTLL cell line = CTLL cell line proliferation, 3H thymidine incorporation; type: cell-based; conditions: for CTLL proliferation: control experiments; for CTLL responsiveness to retinol and AR: with recombinant IL-2, broad dose ranges, data not shown
Method: as §2

[4] = biological target: T2, serum retinol binding protein (RBP) (Homo sapiens, UniProt P02753); experiment: Dissociation constant to serum retinol binding protein by fluorometric titration
T2 construct: Human RBP was purified from human serum; from tissue; host or cells: human serum
Method: as §4

[5] = tested on: Human B lymphoblastoid cells (5/2); experiment: B lymphoblastoid cell proliferation, 3H thymidine incorporation; type: cell-based
Method: (§5) Human B lymphoblastoid cells (e.g., cell line 5/2) were cultured in medium RPMI 1640 with 7% fetal calf serum. On the day of the assay, cells were washed and transferred to serum-free medium, RPMI 1640 supplemented with insulin, transferrin, linoleic acid, and bovine albumin (ITLB medium) as described (3). Test reagents at indicated concentrations were added to triplicate cultures of […] in 96 well plates (final volume of 200 μl/well) and cell proliferation tested 1 day (FIGS. 2B, 2C, 2D) or 3 days later (FIG. 2A) by ^3 H thymidine incorporation into DNA. […] Three additional human lymphoblastoid cell lines, Hom 2, Jest and Ducaf were tested under the conditions specified for FIG. 2A (FIG. 2D).

resting T lymphocytes = experiment: Activation of resting T lymphocytes (summary statement); type: cell-based
[6] = tested on: Human lymphoblastoid 5/2 cells; experiment: Metabolites of [3H] retinol in lymphoblastoid 5/2 cells, HPLC; type: in vitro ADME; conditions: 5/2, 16 hours, FIG. 1C
Method: as §3

[7] = biological target: cellular retinoic acid binding protein (CRABP I) (Homo sapiens, UniProt P29762); experiment: Dissociation constant to cellular retinoic acid binding protein by fluorometric titration; conditions: no binding = no significant binding could be detected
Chain of cellular retinoic acid binding protein (CRABP I) (P29762 whole entry): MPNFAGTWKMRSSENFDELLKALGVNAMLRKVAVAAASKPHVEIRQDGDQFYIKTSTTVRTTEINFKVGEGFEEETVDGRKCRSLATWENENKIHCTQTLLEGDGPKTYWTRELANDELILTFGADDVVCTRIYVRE
Method: as §4

[8] = tested on: human lymphoblastoid cell lines; experiment: B lymphoblastoid cell proliferation, 3H thymidine incorporation (Hom 2, Jest, Ducaf); type: cell-based; conditions: several randomly selected lines, FIG. 2D
Method: as §5

murine B cell lymphoma = experiment: Inhibition of murine B cell lymphoma by AR; type: cell-based
interleukin-2 (IL-2) = experiment: IL-2 release by stimulated thymocytes, CTLL assay; type: cell-based, murine; conditions: for IL-2 production: presence or absence of retinol or 14-HRR, previous unpublished work
Method: as §2

lymphocytes [9] = experiment: Cultures of lymphocytes with 14-HRR as agonist; type: cell-based; conditions: FIGS. 2B and 4B
IL-2 receptor = IL-2 receptor expression of activated T cells; type: cell-based; conditions: presence or absence of retinol or 14-HRR, previous unpublished work
Murine thymocytes [10] = conditions: T cell receptor-generated signals, serum-free medium, ref. (3); cited from earlier work
[11] = tested on: Il-2 dependent TH cell clones and T cell hybridoma; experiment: Growth of Il-2 dependent TH cell clones and T cell hybridoma; type: cell-based; conditions: previous unpublished observations
[12] = tested on: T cell leukemia line Jurkat; experiment: Jurkat T cell leukemia growth, viable cell count with trypan blue; type: cell-based, human
Source text: Viable cells in each culture were counted. On days 4 and 6 nutrients were replenished.
The T cell leukemia line Jurkat was transferred from normal, FCS-containingmedium to serum-free medium ITLB. […] Cells were counted daily differentially in the presence of trypan blue, and the total number of cells generated in each culture plotted in FIG. 3A. It is evident that cells deprived of retinol decline in numbers as compared to cells with retinol.

Compound: C=CC(C)=CC=CC(C)=CC=C1C(C)=CCCC1(C)C [AR, Anhydroretinol]
- inhibition by AR, relative sensitivity (DU145): highest sensitivity
- inhibition by AR, relative sensitivity (LNcAP): appears to be insensitive
- thymidine uptake of cycling thymocytes (Murine thymocytes [1]; AR given 2 days after activation, FIG. 4C): able to reduce the thymidine uptake of cycling thymocytes
- inhibition of thymocyte activation (Murine thymocytes [1]; retinol or 14-HRR as cofactor, anti-CD3, FIGS. 4A, 4B): pronounced
- metabolism by lymphocytes to retinol or to 14-HRR (lymphocytes [2]): not metabolized
- AR as metabolite of [3H] retinol (SF-9 cells): undetectable
- metabolic rate of 14-HRR synthesis (14-HRR synthesis): no change
- B lymphocyte proliferation (B lymphocyte): block B lymphocyte proliferation
- aid to B cell proliferation (B lymphocyte): not to aid B cell proliferation
- Kd [3]: 23 nM
- AR as metabolite of [3H] retinol (SF 21 cells): predominant metabolite
- CTLL proliferation (CTLL cell line): completely inert
- CTLL responsiveness to retinol and AR (CTLL cell line): independent of either retinoid
- Kd ([4]; fluorometric titration, 150 mM NaCl, 0.1 mM DTT, 25 mM HEPES, read-out: dissociation constant RBP): 20 nM
- antagonism of 14-HRR ([5]; AR 5×10^-6 M vs 1.3×10^-6 M 14-HRR, FIG. 2B): clear antagonism
- antagonism of retinol ([5]; AR 5×10^-6 M vs 3.7×10^-6 M retinol, FIG. 2A): clear antagonism
- support of B cell proliferation ([5]; FIG. 2A): nor does it support B cell proliferation
- inhibition of B cell cultures ([5]; graded concentrations of fetal calf serum (FIG. 2C) or RBP/retinol complex (data not shown)): strongly inhibitory
- ID50 values ([5]; graded concentrations of fetal calf serum or RBP/retinol complex): comparable to those seen in retinol-supplemented cultures
- inhibitory dose (ID50) ([5]; serum-free medium supplemented with retinol or 14-HRR): dependent on the agonist concentration
- competitive antagonism of retinol or 14-HRR ([5]; serum-free medium with retinol or 14-HRR, FIGS. 2A, 2B): competitive antagonist
- growth inhibition of B cell cultures ([5]; ten percent fetal bovine serum containing medium, FIG. 2C): strong growth inhibition
- activation of resting T lymphocytes (resting T lymphocytes): block B lymphocyte proliferation as well as activation of resting T lymphocytes
- AR as metabolite of [3H] retinol [6]: also produced AR
- dissociation constant CRABP I (binding in words) [7]: no binding
- sensitivity to inhibition by AR [8]: all proved sensitive to inhibition
- sensitivity to inhibition by AR (murine B cell lymphoma): all proved sensitive to inhibition
- IL-2 release (interleukin-2 (IL-2); supernatants after 18 hours, FIG. 4D): did not interfere with IL-2 release
- inhibition of lymphocyte cultures with 14-HRR as agonist (lymphocytes [9]): reversibly inhibits

Compound: CC(C=CC=C(C)C(O)CO)=CC=C1C(C)=CCCC1(C)C (stereo not drawn) [Compound 14-HRR, 14-hydroxy-4,14-retro-retinol]
- binding to CRBP [3]: does not bind to CRBP with appreciable affinity
- dissociation constant CRBP I (binding in words) ([3]; no binding = no significant binding could be detected): no binding
- CTLL proliferation (CTLL cell line): completely inert
- Kd [4]: 120 nM
- dissociation constant CRABP I (binding in words) [7]: no binding
- IL-2 receptor expression (IL-2 receptor): unaffected
- activation of resting thymocytes, cofactor dependence (Murine thymocytes [10]): dependent on retinoid cofactors
- growth dependence on retinol and 14-HRR [11]: grow independently
- IL-2 production (interleukin-2 (IL-2)): unaffected

Compound: CC1=C(/C=C/C(C)=C/C=C/C(C)=C/CO)C(C)(C)CCC1 [retinol, all-trans retinol]
- Kd [3]: 13 nM
- CTLL proliferation (CTLL cell line): completely inert
- CTLL responsiveness to retinol and AR (CTLL cell line): independent of either retinoid
- rescue of Jurkat cells on reintroduction of retinol ([12]; after day 6): allows rescue of the cells
- dependence of Jurkat cells on retinol ([12]; serum-free medium ITLB, 4×10^-6 M retinol): retinol-dependent
- dissociation constant CRABP I (binding in words) [7]: no binding
- IL-2 receptor expression (IL-2 receptor): unaffected
- activation of resting thymocytes, cofactor dependence (Murine thymocytes [10]): dependent on retinoid cofactors
- growth dependence on retinol and 14-HRR [11]: grow independently
- IL-2 production (interleukin-2 (IL-2)): unaffected
